From article PMC12587545, “Noncytotoxic polymyxin derivatives enhance antibiotic action against multidrug-resistant Gram-negative bacteria” (Antimicrobial Agents and Chemotherapy, 2025)
Where “and” joins values, the source holds several entries; their conditions need not be identical. Equal values may be shown once.

What was measured:
[1] = tested on: E. cloacae; test: Checkerboard assay (antibiotic potentiation); type: cell-based, Enterobacter cloacae; conditions: E. cloacae 121887 (colistin-resistant)
[2] = tested on: E. coli; test: Checkerboard assay (antibiotic potentiation); type: cell-based, Escherichia coli; conditions: for Interpretation: antibiotic + compound 1; for MICantibiotic + compound: antibiotic MIC with 8 µg/mL (5 µM) compound 1; for MICantibiotic: antibiotic alone; for Potentiation: of antibiotic by 8 µg/mL (5 µM) compound 1
[3] = tested on: E. faecalis ATCC 29212; test: Checkerboard assay (rifampicin potentiation); type: cell-based
Procedure: (§1) The interaction between the compounds and the antibiotics was evaluated using the fractional inhibitory concentration (FIC) index. FIC indices of ≤0.5 is synergistic, 0.5 < × ≤ 4 is additive, whereas >4 is antagonistic ([34]). […] .
(§2) The bacterial isolates were acquired from ATCC or the Canadian Ward Surveillance (CANWARD) study ([56]). CANWARD isolates were collected from infected patients admitted to participating medical centers across Canada.
(§3) The antibiotic and compounds were serially diluted 2-fold in CAMHB along the x- and y-axis, respectively, on a 96-well plate that was subsequently incubated with equal volumes of bacterial inoculum overnight at 37°C. Wells containing only media were used as negative controls, and wells containing only bacteria were used as positive controls. Synergy was measured by the FIC index, which is the summation of the individual FICs of the antibiotic and the compound. The FIC is calculated by dividing the MIC of one agent in the presence of another by the MIC of the agent alone. Turbidity was confirmed with a Molecular Devices (United States) EMax Plus microplate reader at a wavelength of 590 nm. The FBS studies were conducted by following a previously published protocol ([29], [50]). The FBS was inactivated by heating at 56°C for 30 min with constant swirling.

[4] = tested on: Methicillin-resistant S. aureus ATCC 22592; test: Checkerboard assay (rifampicin potentiation); type: cell-based; conditions: MRSA ATCC 22592
Procedure: as §1, §2, §3

[5] = tested on: E. faecium ATCC 27270; test: Checkerboard assay (rifampicin potentiation); type: cell-based
Procedure: as §1, §2, §3

[6] = tested on: K. pneumoniae; test: Checkerboard assay (antibiotic potentiation); type: cell-based, Klebsiella pneumoniae; conditions: for Interpretation: antibiotic + compound 1; for MICantibiotic + compound: antibiotic MIC with 8 µg/mL (5 µM) compound 1; for MICantibiotic: antibiotic alone; for Potentiation: of antibiotic by 8 µg/mL (5 µM) compound 1
[7] = tested on: A. baumannii; test: Checkerboard assay (antibiotic potentiation); type: cell-based, Acinetobacter baumannii; conditions: for MICantibiotic: antibiotic alone
[8] = tested on: P. aeruginosa; test: Checkerboard assay (antibiotic potentiation); type: cell-based, Pseudomonas aeruginosa; conditions: for MICantibiotic: antibiotic alone
[9] = tested on: MDR Gram-negative bacteria clinical isolates; test: Checkerboard assay, summary over strains; type: cell-based; conditions: of all 14 clinical isolates; number (%)
[10] = E. coli 94393 (colistin-resistant)
[11] = E. coli 94474 (colistin-resistant)
[12] = of rifampicin by 8 µg/mL (5 µM) compound 1
[13] = rifampicin MIC with 8 µg/mL (5 µM) compound 1
[14] = K. pneumoniae 113250 (colistin-resistant)

CO[C@H]1/C=C/O[C@@]2(C)Oc3c(C)c(O)c4c(O)c(c(/C=N/N5CCN(C)CC5)c(O)c4c3C2=O)NC(=O)/C(C)=C\C=C\[C@H](C)[C@H](O)[C@@H](C)[C@@H](O)[C@@H](C)[C@H](OC(C)=O)[C@@H]1C [Rifampicin]
Interpretation ([1]; antibiotic + compound 1): Synergy (FIC indices of ≤0.5 is synergistic)
MICantibiotic + compound ([1]; antibiotic MIC with 8 µg/mL (5 µM) compound 1): 1 µg/mL
MICantibiotic ([1]; antibiotic alone): >4 µg/mL
Potentiation ([1]; of antibiotic by 8 µg/mL (5 µM) compound 1): ≥8-fold
Interpretation [2, 10]: Synergy (FIC indices of ≤0.5 is synergistic)
MICantibiotic + compound [2, 10]: 0.5 µg/mL
MICantibiotic [2, 10]: >16 µg/mL
Potentiation [2, 10]: ≥32-fold
Interpretation [2, 11]: Synergy (FIC indices of ≤0.5 is synergistic)
MICantibiotic + compound [2, 11]: 0.5 µg/mL
MICantibiotic [2, 11]: 8 µg/mL
Potentiation [2, 11]: 16 fold
Potentiation [3, 12]: 1 fold
Interpretation ([3]; rifampicin + compound 1): Additive (0.5 < × ≤ 4 is additive)
MICantibiotic + compound [3, 13]: 0.5 µg/mL
MICantibiotic ([3]; rifampicin alone): 0.5 µg/mL
Potentiation [4, 12]: 1 fold
Interpretation ([4]; rifampicin + compound 1): Additive (0.5 < × ≤ 4 is additive)
MICantibiotic + compound [4, 13]: 512 µg/mL
MICantibiotic ([4]; rifampicin alone): 512 µg/mL
Potentiation [5, 12]: 1 fold
Interpretation ([5]; rifampicin + compound 1): Additive (0.5 < × ≤ 4 is additive)
MICantibiotic + compound [5, 13]: 0.031 µg/mL
MICantibiotic ([5]; rifampicin alone): 0.031 µg/mL
Interpretation [6, 14]: Synergy (FIC indices of ≤0.5 is synergistic)
MICantibiotic + compound [6, 14]: 2 µg/mL
MICantibiotic [6, 14]: 32 µg/mL
Potentiation [6, 14]: 16 fold
Interpretation ([6]; K. pneumoniae 116381): Synergy (FIC indices of ≤0.5 is synergistic)
MICantibiotic + compound ([6]; K. pneumoniae 116381): 0.25 µg/mL
MICantibiotic ([6]; K. pneumoniae 116381): >256 µg/mL
Potentiation ([6]; K. pneumoniae 116381): ≥2048-fold
Interpretation ([7]; A. baumannii 92247 (colistin-resistant), antibiotic + compound 1): Synergy (FIC indices of ≤0.5 is synergistic)
MICantibiotic + compound ([7]; A. baumannii 92247 (colistin-resistant), antibiotic MIC with 4 µg/mL (2 µM) compound 1): 0.031 µg/mL
MICantibiotic ([7]; A. baumannii 92247 (colistin-resistant)): 4 µg/mL
Potentiation ([7]; A. baumannii 92247 (colistin-resistant), of antibiotic by 4 µg/mL (2 µM) compound 1): 128 fold
Interpretation ([7]; A. baumannii 110193, antibiotic + compound 1): Synergy (FIC indices of ≤0.5 is synergistic)
MICantibiotic + compound ([7]; A. baumannii 110193, antibiotic MIC with 4 µg/mL (2 µM) compound 1): 0.004 µg/mL
MICantibiotic ([7]; A. baumannii 110193): 4 µg/mL
Potentiation ([7]; A. baumannii 110193, of antibiotic by 4 µg/mL (2 µM) compound 1): ≥1024-fold
Interpretation ([7]; A. baumannii AB027, antibiotic + compound 1): Synergy (FIC indices of ≤0.5 is synergistic)
MICantibiotic + compound ([7]; A. baumannii AB027, antibiotic MIC with 4 µg/mL (2 µM) compound 1): 0.004 µg/mL
MICantibiotic ([7]; A. baumannii AB027): 2 µg/mL
Potentiation ([7]; A. baumannii AB027, of antibiotic by 4 µg/mL (2 µM) compound 1): ≥512-fold
Interpretation ([7]; A. baumannii AB031, antibiotic + compound 1): Synergy (FIC indices of ≤0.5 is synergistic)
MICantibiotic + compound ([7]; A. baumannii AB031, antibiotic MIC with 4 µg/mL (2 µM) compound 1): 0.004 µg/mL
MICantibiotic ([7]; A. baumannii AB031): 4 µg/mL
Potentiation ([7]; A. baumannii AB031, of antibiotic by 4 µg/mL (2 µM) compound 1): ≥1024-fold
Interpretation ([7]; A. baumannii ATCC 17978, antibiotic + compound 1): Synergy (FIC indices of ≤0.5 is synergistic)
Interpretation ([7]; A. baumannii ATCC 17978, antibiotic + compound 3): Additive (0.5 < × ≤ 4 is additive)
MICantibiotic + compound ([7]; A. baumannii ATCC 17978, antibiotic MIC with 8 µg/mL (5 µM) compound 3): 2 µg/mL
MICantibiotic + compound ([7]; A. baumannii ATCC 17978, antibiotic MIC with ¼ MIC (≤5 µM) of compound 1): 0.016 µg/mL
MICantibiotic ([7]; A. baumannii ATCC 17978): 8 µg/mL and 4 µg/mL
Potentiation ([7]; A. baumannii ATCC 17978, of antibiotic by 8 µg/mL (5 µM) compound 3): 2 fold
Potentiation ([7]; A. baumannii ATCC 17978, of antibiotic by ¼ MIC (≤5 µM) of compound 1): ≥512-fold
Interpretation ([8]; P. aeruginosa 259-96916, antibiotic + compound 1): Synergy (FIC indices of ≤0.5 is synergistic)
MICantibiotic + compound ([8]; P. aeruginosa 259-96916, antibiotic MIC with 8 µg/mL (5 µM) compound 1): 0.031 µg/mL
MICantibiotic ([8]; P. aeruginosa 259-96916): 16 µg/mL
Potentiation ([8]; P. aeruginosa 259-96916, of antibiotic by 8 µg/mL (5 µM) compound 1): ≥512-fold
Interpretation ([8]; P. aeruginosa 262-101856, antibiotic + compound 1): Synergy (FIC indices of ≤0.5 is synergistic)
MICantibiotic + compound ([8]; P. aeruginosa 262-101856, antibiotic MIC with 8 µg/mL (5 µM) compound 1): 2 µg/mL
MICantibiotic ([8]; P. aeruginosa 262-101856): 512 µg/mL
Potentiation ([8]; P. aeruginosa 262-101856, of antibiotic by 8 µg/mL (5 µM) compound 1): 256 fold
Interpretation ([8]; P. aeruginosa 264-105354, antibiotic + compound 1): Synergy (FIC indices of ≤0.5 is synergistic)
MICantibiotic ([8]; P. aeruginosa 264-105354): 32 µg/mL
Potentiation ([8]; P. aeruginosa 264-105354, of antibiotic by 8 µg/mL (5 µM) compound 1): ≥256-fold
Interpretation ([8]; P. aeruginosa 101243 (colistin-resistant), antibiotic + compound 1): Synergy (FIC indices of ≤0.5 is synergistic)
MICantibiotic + compound ([8]; P. aeruginosa 101243 (colistin-resistant), antibiotic MIC with 8 µg/mL (5 µM) compound 1): 2 µg/mL
MICantibiotic ([8]; P. aeruginosa 101243 (colistin-resistant)): 16 µg/mL
Potentiation ([8]; P. aeruginosa 101243 (colistin-resistant), of antibiotic by 8 µg/mL (5 µM) compound 1): 8 fold
Interpretation ([8]; P. aeruginosa 114228 (colistin-resistant), antibiotic + compound 1): Additive (0.5 < × ≤ 4 is additive)
MICantibiotic + compound ([8]; P. aeruginosa 114228 (colistin-resistant), antibiotic MIC with 8 µg/mL (5 µM) compound 1): 8 µg/mL
MICantibiotic ([8]; P. aeruginosa 114228 (colistin-resistant)): 16 µg/mL
Potentiation ([8]; P. aeruginosa 114228 (colistin-resistant), of antibiotic by 8 µg/mL (5 µM) compound 1): 2 fold
Interpretation ([8]; P. aeruginosa PAO1, antibiotic + compound 1): Synergy (FIC indices of ≤0.5 is synergistic)
Interpretation ([8]; P. aeruginosa PAO1, antibiotic + compound 3): Additive (0.5 < × ≤ 4 is additive)
MICantibiotic + compound ([8]; P. aeruginosa PAO1, antibiotic MIC with 8 µg/mL (5 µM) compound 1): 0.063 µg/mL
MICantibiotic + compound ([8]; P. aeruginosa PAO1, antibiotic MIC with 8 µg/mL (5 µM) compound 3): 32 µg/mL
MICantibiotic ([8]; P. aeruginosa PAO1): 16 µg/mL and 32 µg/mL
Potentiation ([8]; P. aeruginosa PAO1, of antibiotic by 8 µg/mL (5 µM) compound 1): ≥256-fold
Potentiation ([8]; P. aeruginosa PAO1, of antibiotic by 8 µg/mL (5 µM) compound 3): 1 fold
clinical isolates in which the antibiotic was synergized by compound 1 [9]: 13 (93%) strains
